Source: patent US20080081078A1, “Prevention of Cell Proliferation by Inhibiting Myosin Light Chain Kinase” (The Board of Trustees of the University of Illinois, priority 2006, published 2008)

How the values were obtained:
[1] = tested on: MLC-P; experiment: MLC-P by urea/glycerol gel immunoblotting in MLL cells; format: cell-based, rat; settings: 5 μM ML-7, 30 μM etoposide or both
[2] = tested on: MLC20 phosphorylation; experiment: MLC20 phosphorylation by urea gel/Western blotting in smooth muscle cells (SMC); format: cell-based, pig; settings: 24 hrs, 10 μM Dex, 10 μM ActD, 100 μM Chx, 2 μM Cam, 100 μM Eto
Method: NIH 3T3 fibroblasts were obtained from ATCC and were grown in Dulbecco's Modified Eagle Medium (DMEM) (Gibco BRL, Gaithersburg, Md.) supplemented with 10% FBS and 1% penicillin and streptomycin in a 37° C. incubator. 3T3 cells were treated with 500 nM actinomycin D in DMEM containing 0.5% FBS without antibiotics for the 0, 2, 4, 8, 16, or 24 hours. Cells were then washed with phosphate buffered saline (PBS). Floating cells were collected by centrifugation and combined with attached cells that were harvested by trypsinization. MLC20 phosphorylation was quantified be Western blotting with an anti-MLC20 antibody (FIG. 1). In short, the harvested cells were treated with ice cold 10% TCA, 10 mM DTT to precipitate the cellular proteins. The pellets were washed with acetone, dissolved in 9 M urea, 10 mM DTT, 20 mM Tris, pH 7.5 and separated using glycerol-urea polyacrylamide gel electrophoresis (PAGE). The proteins were transferred to nitrocellulose, the un-, mono-, and di-phosphorylated forms of MLC20 were identified using an affinity purified antibody to MLC20 and horseradish peroxidase-linked secondary antibody (Jackson ImmunoResearch, West Grove, Pa.). Protein bands were visualized with ECL reagent and the stoichiometry of phosphorylation (mol PO4/mol MLC20) was calculated as described (Obara et al., 1989, “Okadaic acid, a phosphatase inhibitor, produces a Ca2+ and calmodulin-independent contraction of lamb tracheal smooth muscle,” Pfluger's Archiv. 414: 134-138).
The stoichiometry of MLC20 phosphorylation (FIG. 1B, inset) was quantified using the urea gel/Western blotting method described above in untreated (Un) pig pulmonary artery smooth muscle cells (SMC) and SMC treated with 10 μM dexamethasone (Dex), 10 μM actinomycin D (ActD), 100 μM cycloheximide (Chx), 2 μM camptothecin (Cam), and 100 μM etoposide (Eto) for 24 hrs (mean+/−SE, n=3).
Next, in order to determine whether MLC-DP can trigger cell death, SMC were treated with ML-7 or KT5926, two inhibitors of MLCK (Nakanishi et al., 1990; Garcia, 1998; and Bain et al., 2003).
SMC cells were either treated with 10 μM cytochalasin D (CytD) or grown on the non-ionic substrate polyHema to prevent attachment.

[3] = tested on: precancerous mammary alveolar lesions (MAL); experiment: Mouse mammary gland organ culture, DMBA-induced mammary alveolar lesions; format: cell-based, Balb/c mice
Method: Mammary glands obtained from young Balb/c mice that are exposed to 7,12-dimethylbenz(a)anthracene (DMBA) for 24 h in culture to form precancerous lesions in 24 days. The procedure has been successfully used to determine efficacy of chemopreventive agents and is described in detail elsewhere. (Mehta et al. PPARγ ligand and retinoids prevent preneoplastic mammary lesions. J. Natl Cancer Instit 2000; 92:418-23). Briefly, 70 mammary glands from 35 Balb/c mice were divided into seven groups of 10 glands each and incubated in serum-free medium containing insulin, prolactin (5 μg/ml each), aldosterone and hydrocortisone (1 μg/ml each) for 10 days. DMBA (2 μg/ml) was included in the medium for 24 h on day 3. […] The glands were fixed in formalin and stained with alum carmine and evaluated for MAL. Percent inhibition was calculated by comparing the incidence in the control glands with the treated groups.
Mammary glands obtained from young Balb/c mice were exposed to DMBA as described above and MAL formation was monitored. […] (Mehta et al. PPARγ ligand and retinoids prevent preneoplastic mammary lesions. J. Natl Cancer Instit 2000; 92:418-23) In the present study, we evaluated effects of etoposide and ML-7 at 0.1, 1.0 and 10.0 μM concentrations on the development of MAL in organ culture. […] Percentage inhibition was calculated by comparing the incidence in the control glands with the treated groups. […]

[4] = tested on: MLL cells; experiment: MLL prostate tumor in Copenhagen rats, ML-7 and/or etoposide; format: in vivo
Method: To determine whether ML-7 stimulated the ability of etoposide to induce apoptosis and retard tumor growth more generally in tumor cells, the effects of ML-7 and etoposide on MLL prostate cancer cells were examined. MLL cells grown in culture were harvested and washed in serum-free Hank's buffer. The cells were suspended in 500 μl serum-free Hank's media and 10^6 cells were injected subcutaneously into the right flank of 12-week old male Copenhagen rats anesthetized with ether. […] Rats were randomly divided into four groups, five in each group, and received injections of ML-7 or vehicle via the jugular vein every 4 days for 2 weeks. ML-7 was used at the dose of 35 mg/kg. In mice receiving etoposide the drug was injected IP at the maximum tolerant dose of 50 mg/m^2 daily. Rats were sacrificed with ether 14 days after the start of drug treatment, and tumors removed, weighed and processed as described below.
To test the anticancer effect of ML-7 in a rat prostate cancer model, ML-7 or vehicle was administered by intrajugular injection, and etoposide administered by intraperitoneal injection. Male Copenhagen rats were inoculated with MLL cells as described above. […] The rats were sacrificed after 14 days of drug treatment and tumor weight and body weight were recorded.
Tumor sections were deparaffinized and rehydrated according to standard procedures. […]

Compound: COc1cc([C@@H]2c3cc4c(cc3[C@@H](O[C@@H]3O[C@@H]5CO[C@@H](C)O[C@H]5[C@H](O)[C@H]3O)[C@H]3COC(=O)[C@H]23)OCO4)cc(OC)c1O [etoposide]
- MLC-P [1]: smaller decrease in MLC-P
- MLC20 phosphorylation [2]: dephosphorylated
- MAL formation ([3]; 0.1 μM): did not affect MAL formation
- inhibition of incidence of MAL formation compared to control ([3]; 1 and 10 μM): 40-46%
- TUNEL positive nuclei in tumors ([4]; 300 cells, MLL tumors in rats (FIG. 17)): 35.8%
- decrease in tumor weight vs vehicle control ([4]; rats, ML-7 35 mg/kg jugular vein every 4 days, etoposide 50 mg/m^2 IP daily, 14 days): 43.3%
